In patent US20110306664A1, “MEDICAL DIETARY COMPOSITION FOR TREATING NEURODEGENERATIVE DISEASES” (SOFEDUS S.R.L., priority 2008, published 2011):
Where two headings read alike, the source gives them in different places.

Assays:
[1] = rat brain (Golovko and Murphy 2006); cited from earlier work
[2] = in the long run (Kramer et al.); cited from earlier work
[3] = animal models, incorporated in the brain (Fa 2005); cited from earlier work
[4] = CSF fatty acid analysis (passage of the blood-brain barrier); assay type: in vivo, human; conditions: humans, given as LO+CLA
Protocol: At baseline and during the 3rd visit, aliquots of cerebrospinal fluid (CSF) were collected by lumbar puncture in all patients. Blood and CSF samples were centrifuged and stored at −80° C., until analyses.
The CSF samples were analysed for fatty acid composition, in order to verify whether CLA and erucic acid are able to pass, and to what extent, the blood-brain barrier.
Total lipids were extracted from plasma or CSF using chloroform/methanol 2:1 (v/v) (Folch J, Lees M, Sloane-Stanley GH. A simple method for the isolation and purification of total lipid from animal tissues. J. Biol. Chem. 1957; 226: 497-509). Separation of phospholipids from total lipids was performed as previously reported (Banni S, Carta G, Angioni E, Murru E, Scanu P, Melis MP, et al. Distribution of conjugated linoleic acid and metabolites in different lipid fractions in the rat liver. J Lipid Res 2001; 42: 1056-1061.). […]
Since saturated fatty acids are transparent to UV, they were measured, after methylation, by means of a gas chromatograph (Agilent, Model 6890, Palo Alto, Calif.) equipped with split ratio of 20:1 injection port, a flame ionization detector (FID), an autosampler (Agilent, Model 7673), a 100 m HP-88 fused capillary column (Agilent), and an Agilent ChemStation software system. […]

Molecule | passage through the blood-brain barrier [1] | myocardial lipidosis [2] | passage through the blood-brain barrier [3] | passage of CLA through the blood-brain barrier [4]
CCCCCCCC/C=C\CCCCCCCCCCCC(=O)O [erucic acid] | hardly passes through the blood-brain barrier | cause in the long run myocardial lipidosis | – | –
conjugated linoleic acid [CLA] | – | – | capable of passing through the blood-brain barrier | prompt entry of CLA through the blood-brain barrier in humans
